According to PMC9090415, “Discovery of small molecule inhibitors of Plasmodium falciparum apicoplast DNA polymerase” (Journal of Enzyme Inhibition and Medicinal Chemistry, 2022):

Target: P. falciparum apicoplast DNA polymerase (Pf-apPOL) (Plasmodium falciparum, UniProt Q8ILY1)
Test: Fluorescence-based high-throughput DNA polymerase assay (molecular beacon), primary screen and dose-response;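 on % inhibition Apol 40': compound concentration given in µM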
Type: biochemical
Conditions: for DNA Pol: 90 min, 10 µM
How it was run: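 Single-point screening used 10 µM compound with 20 nM polymerase, 20 nM hairpin substrate and 6 µM dNTPs for 90 min at 25 °C. Confirmatory titrations (2.5–80 µM) followed fluorescence at three times, and IC50 was derived from a fit including a cooperativity term n.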

Chain of P. falciparum apicoplast DNA polymerase (Pf-apPOL) (Q8ILY1 entry or part of it): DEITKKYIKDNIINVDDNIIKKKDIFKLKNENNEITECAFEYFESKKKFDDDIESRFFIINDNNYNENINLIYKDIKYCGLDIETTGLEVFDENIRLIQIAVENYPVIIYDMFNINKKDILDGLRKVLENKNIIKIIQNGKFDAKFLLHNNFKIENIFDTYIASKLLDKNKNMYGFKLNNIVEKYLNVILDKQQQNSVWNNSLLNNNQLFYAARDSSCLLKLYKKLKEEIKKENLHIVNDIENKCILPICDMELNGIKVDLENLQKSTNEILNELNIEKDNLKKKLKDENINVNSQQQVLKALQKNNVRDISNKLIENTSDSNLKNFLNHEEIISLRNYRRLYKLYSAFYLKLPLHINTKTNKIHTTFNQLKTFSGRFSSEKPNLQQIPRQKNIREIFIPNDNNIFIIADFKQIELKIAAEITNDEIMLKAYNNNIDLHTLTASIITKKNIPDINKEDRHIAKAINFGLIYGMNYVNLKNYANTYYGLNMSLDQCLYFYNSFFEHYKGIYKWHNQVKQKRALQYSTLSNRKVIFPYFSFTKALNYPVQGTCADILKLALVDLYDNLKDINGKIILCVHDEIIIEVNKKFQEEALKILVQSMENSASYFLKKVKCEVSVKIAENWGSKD

For `Cc1cccc2c(C(=O)NC(C)C)cc(N(C)C)nc12` [Molecule 47, CC(NC(=O)c1cc(nc2c1cccc2C)N(C)C)C], the “DNA Pol” value ('DNA Pol' of the 186 hits list (primary screen value)) was 22, the “DNA Pol” value (DNA Pol (primary screen value)) was 22 and the “% inhibition Apo pol 10'” value (DRC-1, concentration 2.5) was 6.184%. The “% inhibition Apo pol 10'” value (DRC-1, concentration 5) was 4.255%, the “% inhibition Apo pol 10'” value (DRC-1, concentration 10) was 30.9701% and the “% inhibition Apo pol 10'” value (DRC-1, concentration 20) was 57.6029%. The “% inhibition Apo pol 10'” value (DRC-1, concentration 40) was 72.1055%, the “% inhibition Apo pol 10'” value (DRC-1, concentration 80) was 75.9231% and the “% inhibition Apol 90'” value (DRC-1, concentration 2.5) was 2.22%. The “% inhibition Apol 90'” value (DRC-1, concentration 5) was 0.7023%, the “% inhibition Apol 90'” value (DRC-1, concentration 10) was 20.6995% and the “% inhibition Apol 90'” value (DRC-1, concentration 20) was 44.2849%. For the same molecule, the “% inhibition Apol 90'” value (DRC-1, concentration 40) was 67.2168%, the “% inhibition Apol 90'” value (DRC-1, concentration 80) was 75.4674% and the “% inhibition apPOL 180'” value (DRC-1, concentration 2.5) was 2.5191%. The “% inhibition apPOL 180'” value (DRC-1, concentration 5) was -0.7995%, the “% inhibition apPOL 180'” value (DRC-1, concentration 10) was 11.775% and the “% inhibition apPOL 180'” value (DRC-1, concentration 20) was 29.3384%. For the same molecule, the “% inhibition apPOL 180'” value (DRC-1, concentration 40) was 56.4011%, the “% inhibition apPOL 180'” value (DRC-1, concentration 80) was 69.9021% and the “% inhibition Apo pol 5'” value (DRC-2, concentration 2.5) was 7%. The “% inhibition Apo pol 5'” value (DRC-2, concentration 5) was 13%, the “% inhibition Apo pol 5'” value (DRC-2, concentration 10) was 21% and the “% inhibition Apo pol 5'” value (DRC-2, concentration 20) was 37%. The “% inhibition Apo pol 5'” value (DRC-2, concentration 40) was 47%, the “% inhibition Apo pol 5'” value (DRC-2, concentration 80) was 35% and the “% inhibition Apol 40'” value (DRC-2, concentration 2.5) was 6.48%. The “% inhibition Apol 40'” value (DRC-2, concentration 5) was 14%, the “% inhibition Apol 40'” value (DRC-2, concentration 10) was 25% and the “% inhibition Apol 40'” value (DRC-2, concentration 20) was 43%. For the same molecule, the “% inhibition Apol 40'” value (DRC-2, concentration 40) was 62%, the “% inhibition Apol 40'” value (DRC-2, concentration 80) was 58% and the “% inhibition ApPOL 90'” value (DRC-2, concentration 2.5) was 6%. For the same molecule, the “% inhibition ApPOL 90'” value (DRC-2, concentration 5) was 11%, the “% inhibition ApPOL 90'” value (DRC-2, concentration 10) was 21% and the “% inhibition ApPOL 90'” value (DRC-2, concentration 20) was 41%. For the same molecule, the “% inhibition ApPOL 90'” value (DRC-2, concentration 40) was 64%, the “% inhibition ApPOL 90'” value (DRC-2, concentration 80) was 63% and the “% inhibition apPOL 180'” value (DRC-2, concentration 2.5) was 1.25%. For the same molecule, the “% inhibition apPOL 180'” value (DRC-2, concentration 5) was 6.35%, the “% inhibition apPOL 180'” value (DRC-2, concentration 10) was 14% and the “% inhibition apPOL 180'” value (DRC-2, concentration 20) was 31%. The “% inhibition apPOL 180'” value (DRC-2, concentration 40) was 60% and the “% inhibition apPOL 180'” value (DRC-2, concentration 80) was 66%.
